Experiments:
[1] = target: 5-hydroxytryptamine receptor 5A (Homo sapiens) (UniProt P47898); conditions: Compound concentration 10.0 uM
[2] = target: Dual specificity mitogen-activated protein kinase kinase 1 (Homo sapiens) (UniProt Q02750); experiment: MAP2K1 Invitrogen Lab (UK) kinase screen (BI)
[3] = target: Casein kinase 2 (Homo sapiens) (UniProt P67870+P68400+P19784+Q8NEV1); experiment: CK2 DUNDEE kinase screen (BI); format: protein assay; conditions: Compound concentration 10.0 uM
[4] = target: Histamine H1 receptor (Homo sapiens) (UniProt P35367); conditions: Compound concentration 10.0 uM
[5] = target: Mitogen-activated protein kinase kinase kinase 10 (Homo sapiens) (UniProt Q02779); conditions: Compound concentration 1.0 uM
[6] = target: Tyrosine-protein kinase JAK1 (Homo sapiens) (UniProt P23458); conditions: Compound concentration 1.0 uM
[7] = target: PI3-kinase p110-alpha/p85-alpha (Homo sapiens) (UniProt P27986+P42336); experiment: PIK3CAPIK3R1 Invitrogen Lab (UK) kinase screen (BI); format: protein-complex assay; conditions: Compound concentration 1.0 uM
[8] = target: STE20/SPS1-related proline-alanine-rich protein kinase (Homo sapiens) (UniProt Q9UEW8); experiment: STK39 (STLK3) Invitrogen Lab (UK) kinase screen (BI); conditions: Compound concentration 1.0 uM
[9] = target: Tyrosine-protein kinase FRK (Homo sapiens) (UniProt P42685); conditions: Compound concentration 1.0 uM
[10] = target: Serine/threonine-protein kinase 24 (Homo sapiens) (UniProt Q9Y6E0); conditions: Compound concentration 1.0 uM
[11] = target: Epidermal growth factor receptor (Homo sapiens) (UniProt P00533)
Sequence of Epidermal growth factor receptor (Homo sapiens) (P00533 whole entry): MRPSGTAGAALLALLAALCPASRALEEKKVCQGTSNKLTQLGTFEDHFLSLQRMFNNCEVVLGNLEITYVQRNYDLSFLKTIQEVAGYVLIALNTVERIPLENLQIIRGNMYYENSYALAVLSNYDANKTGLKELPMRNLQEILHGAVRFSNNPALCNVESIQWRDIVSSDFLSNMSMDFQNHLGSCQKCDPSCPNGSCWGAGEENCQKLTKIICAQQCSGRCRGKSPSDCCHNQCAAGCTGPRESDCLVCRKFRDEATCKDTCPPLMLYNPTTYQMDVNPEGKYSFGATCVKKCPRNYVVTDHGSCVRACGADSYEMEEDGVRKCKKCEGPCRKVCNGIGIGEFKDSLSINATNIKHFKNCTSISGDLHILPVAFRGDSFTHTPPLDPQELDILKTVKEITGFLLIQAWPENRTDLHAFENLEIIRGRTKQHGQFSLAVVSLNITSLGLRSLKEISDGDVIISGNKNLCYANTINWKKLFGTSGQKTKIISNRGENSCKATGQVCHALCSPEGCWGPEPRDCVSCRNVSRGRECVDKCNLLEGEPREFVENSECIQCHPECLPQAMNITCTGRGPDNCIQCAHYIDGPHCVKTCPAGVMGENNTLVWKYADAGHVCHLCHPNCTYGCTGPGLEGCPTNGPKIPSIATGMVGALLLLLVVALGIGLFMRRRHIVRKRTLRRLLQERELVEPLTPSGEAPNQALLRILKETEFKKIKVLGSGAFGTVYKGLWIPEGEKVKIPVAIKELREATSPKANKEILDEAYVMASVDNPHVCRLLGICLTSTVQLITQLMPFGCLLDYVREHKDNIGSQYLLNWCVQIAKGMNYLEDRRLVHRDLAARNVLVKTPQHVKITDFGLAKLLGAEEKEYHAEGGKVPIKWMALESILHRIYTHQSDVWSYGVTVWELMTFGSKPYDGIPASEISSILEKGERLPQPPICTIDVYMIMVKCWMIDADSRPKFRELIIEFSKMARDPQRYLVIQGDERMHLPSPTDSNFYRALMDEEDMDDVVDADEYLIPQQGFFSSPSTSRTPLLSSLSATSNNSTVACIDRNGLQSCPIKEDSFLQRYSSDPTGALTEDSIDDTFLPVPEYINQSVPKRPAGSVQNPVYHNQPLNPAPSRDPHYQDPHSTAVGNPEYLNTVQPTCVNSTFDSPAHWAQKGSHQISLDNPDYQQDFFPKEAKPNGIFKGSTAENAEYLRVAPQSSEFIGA

[12] = target: Alpha-1B adrenergic receptor (Homo sapiens) (UniProt P35368); conditions: Compound concentration 10.0 uM
Sequence of Alpha-1B adrenergic receptor (Homo sapiens) (P35368 whole entry): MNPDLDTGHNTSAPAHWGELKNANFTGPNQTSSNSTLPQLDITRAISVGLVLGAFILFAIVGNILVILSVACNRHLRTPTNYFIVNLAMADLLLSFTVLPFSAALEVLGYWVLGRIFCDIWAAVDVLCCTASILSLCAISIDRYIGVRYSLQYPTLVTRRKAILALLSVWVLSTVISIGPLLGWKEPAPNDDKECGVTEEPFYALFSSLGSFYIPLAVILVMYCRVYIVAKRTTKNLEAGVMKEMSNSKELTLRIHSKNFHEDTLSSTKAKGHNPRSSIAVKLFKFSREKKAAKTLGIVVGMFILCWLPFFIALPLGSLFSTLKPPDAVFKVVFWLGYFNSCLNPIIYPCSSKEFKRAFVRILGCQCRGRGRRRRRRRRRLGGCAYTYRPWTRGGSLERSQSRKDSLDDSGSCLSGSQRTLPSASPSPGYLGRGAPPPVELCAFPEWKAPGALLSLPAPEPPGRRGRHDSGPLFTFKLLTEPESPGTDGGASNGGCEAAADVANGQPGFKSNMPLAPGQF

[13] = target: Receptor tyrosine-protein kinase erbB-4 (Homo sapiens) (UniProt Q15303); conditions: Compound concentration 1.0 uM
[14] = target: Tyrosine-protein kinase Fyn (Homo sapiens) (UniProt P06241); conditions: Compound concentration 1.0 uM
[15] = target: Phosphatidylinositol 4-phosphate 3-kinase C2 domain-containing subunit alpha (Homo sapiens) (UniProt O00443); conditions: Compound concentration 1.0 uM
[16] = target: Tyrosine-protein kinase ITK/TSK (Homo sapiens) (UniProt Q08881); experiment: ITK Invitrogen Lab (UK) kinase screen (BI); conditions: Compound concentration 1.0 uM
[17] = target: Alpha-1A adrenergic receptor (Homo sapiens) (UniProt P35348); conditions: Compound concentration 10.0 uM
[18] = target: Cyclin-dependent kinase-like 5 (Homo sapiens) (UniProt O76039); experiment: CDKL5 Invitrogen Lab (UK) kinase screen (BI); conditions: Compound concentration 1.0 uM
[19] = target: CDK8/Cyclin C (Homo sapiens) (UniProt P49336+P24863); conditions: Compound concentration 1.0 uM
[20] = target: Serine/threonine-protein kinase SIK3 (Homo sapiens) (UniProt Q9Y2K2); experiment: SIK3 Invitrogen Lab (UK) kinase screen (BI); conditions: Compound concentration 1.0 uM
[21] = target: Fibroblast growth factor receptor 1 (Homo sapiens) (UniProt P11362)
Sequence of Fibroblast growth factor receptor 1 (Homo sapiens) (P11362 22-822 limits assumed): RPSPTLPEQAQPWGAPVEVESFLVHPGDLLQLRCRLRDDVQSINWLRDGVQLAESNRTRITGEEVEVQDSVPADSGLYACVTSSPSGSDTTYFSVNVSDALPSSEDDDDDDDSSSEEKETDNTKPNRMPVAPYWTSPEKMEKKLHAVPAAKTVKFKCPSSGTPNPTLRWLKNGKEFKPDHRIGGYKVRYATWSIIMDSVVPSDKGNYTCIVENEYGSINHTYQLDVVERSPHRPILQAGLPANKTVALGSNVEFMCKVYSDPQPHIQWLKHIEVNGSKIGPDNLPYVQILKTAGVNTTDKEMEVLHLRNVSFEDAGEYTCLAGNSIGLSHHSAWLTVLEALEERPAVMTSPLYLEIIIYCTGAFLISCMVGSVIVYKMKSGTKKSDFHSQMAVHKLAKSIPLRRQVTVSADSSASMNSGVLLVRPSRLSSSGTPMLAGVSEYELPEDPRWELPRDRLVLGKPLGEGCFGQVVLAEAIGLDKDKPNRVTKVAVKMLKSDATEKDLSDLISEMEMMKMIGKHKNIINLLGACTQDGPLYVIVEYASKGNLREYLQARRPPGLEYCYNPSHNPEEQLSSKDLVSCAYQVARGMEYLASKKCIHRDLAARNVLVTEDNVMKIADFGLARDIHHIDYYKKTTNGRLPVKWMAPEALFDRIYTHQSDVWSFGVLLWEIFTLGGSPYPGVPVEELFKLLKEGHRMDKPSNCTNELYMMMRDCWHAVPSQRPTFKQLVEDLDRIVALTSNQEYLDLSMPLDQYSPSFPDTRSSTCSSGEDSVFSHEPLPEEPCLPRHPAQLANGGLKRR

[22] = target: Serine/threonine-protein kinase 17A (Homo sapiens) (UniProt Q9UEE5); experiment: STK17A Invitrogen Lab (UK) kinase screen (BI); conditions: Compound concentration 1.0 uM
[23] = target: Beta-2 adrenergic receptor (Homo sapiens) (UniProt P07550); conditions: Compound concentration 10.0 uM
[24] = target: T1, D(4) dopamine receptor (Homo sapiens) (UniProt P21917); conditions: Compound concentration 10.0 uM
T1 sequence (whole entry): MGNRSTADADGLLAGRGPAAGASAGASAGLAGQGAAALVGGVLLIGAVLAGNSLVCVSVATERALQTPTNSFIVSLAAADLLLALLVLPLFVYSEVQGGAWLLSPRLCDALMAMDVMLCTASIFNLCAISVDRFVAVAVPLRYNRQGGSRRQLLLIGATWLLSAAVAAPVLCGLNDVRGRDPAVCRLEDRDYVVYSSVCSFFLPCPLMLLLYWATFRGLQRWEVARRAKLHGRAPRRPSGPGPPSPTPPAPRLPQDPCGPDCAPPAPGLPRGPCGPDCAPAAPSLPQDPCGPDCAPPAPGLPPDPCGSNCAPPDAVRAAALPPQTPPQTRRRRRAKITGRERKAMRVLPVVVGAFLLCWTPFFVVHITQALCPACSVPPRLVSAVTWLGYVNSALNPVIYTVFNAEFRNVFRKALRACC

[25] = target: RAC-beta serine/threonine-protein kinase (Homo sapiens) (UniProt P31751); experiment: PKB-BETA DUNDEE kinase screen (BI); conditions: Compound concentration 10.0 uM
[26] = target: Protein kinase C zeta type (Homo sapiens) (UniProt Q05513); experiment: PRKCZ Invitrogen Lab (UK) kinase screen (BI); conditions: Compound concentration 1.0 uM
Sequence of Protein kinase C zeta type (Homo sapiens) (Q05513 whole entry): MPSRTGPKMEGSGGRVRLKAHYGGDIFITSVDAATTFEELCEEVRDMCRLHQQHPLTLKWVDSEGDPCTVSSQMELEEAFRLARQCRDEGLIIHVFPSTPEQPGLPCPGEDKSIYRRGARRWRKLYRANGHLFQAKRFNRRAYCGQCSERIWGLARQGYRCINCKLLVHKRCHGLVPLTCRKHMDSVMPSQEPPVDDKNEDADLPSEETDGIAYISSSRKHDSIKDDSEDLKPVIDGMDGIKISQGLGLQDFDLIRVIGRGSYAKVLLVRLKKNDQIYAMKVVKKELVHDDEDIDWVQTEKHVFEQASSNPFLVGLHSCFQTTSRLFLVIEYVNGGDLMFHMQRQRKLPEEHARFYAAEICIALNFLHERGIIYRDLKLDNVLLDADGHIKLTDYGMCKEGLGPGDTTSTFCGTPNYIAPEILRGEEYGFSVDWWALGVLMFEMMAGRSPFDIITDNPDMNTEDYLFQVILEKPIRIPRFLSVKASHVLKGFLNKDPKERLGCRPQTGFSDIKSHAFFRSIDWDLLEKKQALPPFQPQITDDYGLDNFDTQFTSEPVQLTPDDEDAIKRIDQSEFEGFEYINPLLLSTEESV

[27] = target: Leukotriene A-4 hydrolase (Cavia porcellus) (UniProt P19602); conditions: Compound concentration 10.0 uM
[28] = target: Serine/threonine-protein kinase MRCK gamma (Homo sapiens) (UniProt Q6DT37); experiment: CDC42 BPG (MRCKG) Invitrogen Lab (UK) kinase screen (BI); conditions: Compound concentration 1.0 uM
[29] = target: Mitogen-activated protein kinase kinase kinase 9 (Homo sapiens) (UniProt P80192); conditions: Compound concentration 1.0 uM
Sequence of Mitogen-activated protein kinase kinase kinase 9 (Homo sapiens) (P80192 whole entry, looked up): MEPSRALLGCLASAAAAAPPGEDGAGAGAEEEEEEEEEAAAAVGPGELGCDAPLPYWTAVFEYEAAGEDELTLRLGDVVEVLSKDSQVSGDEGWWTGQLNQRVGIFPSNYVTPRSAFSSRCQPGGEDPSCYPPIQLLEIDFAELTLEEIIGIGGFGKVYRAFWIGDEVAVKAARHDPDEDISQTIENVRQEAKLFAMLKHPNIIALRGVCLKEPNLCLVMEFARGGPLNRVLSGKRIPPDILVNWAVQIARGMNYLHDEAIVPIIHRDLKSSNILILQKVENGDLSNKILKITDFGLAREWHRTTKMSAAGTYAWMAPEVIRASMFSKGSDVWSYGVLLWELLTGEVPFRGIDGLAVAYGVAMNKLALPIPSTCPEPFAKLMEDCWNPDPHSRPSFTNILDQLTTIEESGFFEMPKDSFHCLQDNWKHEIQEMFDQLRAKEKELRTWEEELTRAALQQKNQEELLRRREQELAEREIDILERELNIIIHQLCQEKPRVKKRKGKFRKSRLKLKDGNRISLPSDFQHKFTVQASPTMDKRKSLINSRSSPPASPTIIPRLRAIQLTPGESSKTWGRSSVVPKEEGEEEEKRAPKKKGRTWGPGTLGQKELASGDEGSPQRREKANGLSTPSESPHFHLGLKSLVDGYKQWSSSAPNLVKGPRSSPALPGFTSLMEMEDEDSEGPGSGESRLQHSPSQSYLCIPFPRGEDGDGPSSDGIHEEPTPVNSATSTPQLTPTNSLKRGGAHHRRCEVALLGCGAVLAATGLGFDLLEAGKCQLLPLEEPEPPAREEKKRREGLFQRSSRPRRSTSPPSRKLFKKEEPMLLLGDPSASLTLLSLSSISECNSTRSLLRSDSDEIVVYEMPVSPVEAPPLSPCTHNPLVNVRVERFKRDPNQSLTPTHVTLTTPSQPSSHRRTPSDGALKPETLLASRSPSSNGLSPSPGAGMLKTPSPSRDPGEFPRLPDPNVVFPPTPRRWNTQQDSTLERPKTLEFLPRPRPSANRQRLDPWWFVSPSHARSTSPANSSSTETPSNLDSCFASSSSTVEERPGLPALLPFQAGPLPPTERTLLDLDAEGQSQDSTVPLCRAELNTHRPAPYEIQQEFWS

[30] = target: Serine/threonine-protein kinase DCLK1 (Homo sapiens) (UniProt O15075); conditions: Compound concentration 1.0 uM
[31] = target: Sigma non-opioid intracellular receptor 1 (Homo sapiens) (UniProt Q99720); conditions: Compound concentration 10.0 uM
[32] = target: Type-1 angiotensin II receptor (Homo sapiens) (UniProt P30556); experiment: AT1 Eurofins SafetyScreen44 (BI)
Sequence of Type-1 angiotensin II receptor (Homo sapiens) (P30556 whole entry): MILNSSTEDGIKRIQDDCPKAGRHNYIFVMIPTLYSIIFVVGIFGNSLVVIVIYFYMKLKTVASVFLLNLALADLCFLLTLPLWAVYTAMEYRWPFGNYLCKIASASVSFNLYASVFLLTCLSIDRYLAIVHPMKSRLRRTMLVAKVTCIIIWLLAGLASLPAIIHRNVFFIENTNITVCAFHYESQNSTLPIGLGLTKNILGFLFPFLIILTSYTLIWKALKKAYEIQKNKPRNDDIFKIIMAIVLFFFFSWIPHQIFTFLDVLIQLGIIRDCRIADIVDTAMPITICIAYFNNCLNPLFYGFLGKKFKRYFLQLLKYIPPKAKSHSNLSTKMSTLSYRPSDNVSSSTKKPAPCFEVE

[33] = target: Serine/threonine-protein kinase MARK1 (Homo sapiens) (UniProt Q9P0L2); conditions: Compound concentration 1.0 uM
[34] = target: Dual specificity protein kinase TTK (Homo sapiens) (UniProt P33981); experiment: TTK Invitrogen Lab (UK) kinase screen (BI); conditions: Compound concentration 1.0 uM
[35] = target: Serine/threonine-protein kinase SIK1 (Homo sapiens) (UniProt P57059); conditions: Compound concentration 1.0 uM
[36] = target: Megakaryocyte-associated tyrosine-protein kinase (Homo sapiens) (UniProt P42679); conditions: Compound concentration 1.0 uM
[37] = target: 5-hydroxytryptamine receptor 2C (Homo sapiens) (UniProt P28335); conditions: Compound concentration 10.0 uM
[38] = target: Cathepsin G (Homo sapiens) (UniProt P08311); experiment: PEPCATHEPSG Eurofins SafetyScreen44 (BI); conditions: Compound concentration 10.0 uM

Sequence of Dual specificity mitogen-activated protein kinase kinase 1 (Homo sapiens) (Q02750 whole entry): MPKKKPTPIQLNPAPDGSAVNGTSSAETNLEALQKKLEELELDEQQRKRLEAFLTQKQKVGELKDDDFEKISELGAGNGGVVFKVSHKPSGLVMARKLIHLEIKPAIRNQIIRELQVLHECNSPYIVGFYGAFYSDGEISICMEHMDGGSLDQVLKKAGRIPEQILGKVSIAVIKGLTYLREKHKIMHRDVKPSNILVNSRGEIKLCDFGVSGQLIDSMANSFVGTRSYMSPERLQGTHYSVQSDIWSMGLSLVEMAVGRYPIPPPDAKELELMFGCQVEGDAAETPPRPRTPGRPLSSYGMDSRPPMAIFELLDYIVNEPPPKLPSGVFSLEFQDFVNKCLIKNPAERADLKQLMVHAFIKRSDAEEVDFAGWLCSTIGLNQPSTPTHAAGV

CCC(F)(F)c1cc(N2CCC(S(C)(=O)=O)CC2)nc2sc(C(N)=O)c(N)c12 [BI-605906]
inactive: inhibition [1] 6.16% | residual activity ([2]; Compound concentration 1.0 uM) 76% | residual activity ([2]; Compound concentration 10.0 uM) 80% | residual activity [3] 89.4% | residual activity [4] 95% | residual activity [5] 98% | residual activity [6] 98% | residual activity [7] 103% | residual activity [8] 88% | residual activity [9] 92% | residual activity [10] 101% | residual activity ([11]; Compound concentration 1.0 uM) 99% | residual activity ([11]; Compound concentration 10.0 uM) 90% | inhibition [12] -0.02% | residual activity [13] 94% | residual activity [14] 97% | residual activity [15] 97% | residual activity [16] 107% | inhibition [17] 18.9% | residual activity [18] 103% | residual activity [19] 82% | residual activity [20] 79% | residual activity ([21]; Compound concentration 1.0 uM) 84% | residual activity ([21]; Compound concentration 10.0 uM) 91% | residual activity [22] 80% | inhibition [23] 8.96% | residual activity [24] 95% | residual activity [25] 98.1% | residual activity [26] 112% | residual activity [27] 93% | residual activity [28] 111% | residual activity [29] 108% | residual activity [30] 99% | inhibition [31] 8.89% | residual activity ([32]; Compound concentration 10.0 uM) 104% | residual activity ([32]; Compound concentration 100.0 uM) 72% | residual activity [33] 91% | residual activity [34] 75% | residual activity [35] 92% | residual activity [36] 101% | inhibition [37] -5.41% | residual activity [38] 106%

Reference: ChEMBL document CHEMBL4800722, “Data for DCP probe BI 605906” (2021)
